Reference: patent publication US9801919B2, “Oral compositions containing enhanced antibacterial combinations of antioxidants and extracts of magnolia” (WM. WRIGLEY JR. COMPANY, priority 2008, dated 2017)

Columns and labels:
[1] = system: S. mutans; assay: MIC and FIC of MBE and common antioxidants against S. mutans (broth two-fold dilution); assay type: cell-based, Streptococcus mutans; conditions: sample alone, lowest concentration with no visible growth, aerobic 37° C., 1 to 2 days; for MIC: Streptococcus mutans
Protocol: (§1) To evaluate an enhanced effect of an active ingredient in combination of magnolia with antioxidant, the fractional inhibitory index (FIC) is computed according to equation (1): […]
The following tests were conducted on S. mutans.
BHA, gallic acid, octyl gallate and magnolia bark extract (MBE) sample were dissolved in ethanol to produce 1-10% working solution and was added to a nutrient broth and shaken well and was diluted two-fold in individual test tubes. A total of 0.2 milliliter (mL) of inoculated bacteria culture purchased from American Type Culture Collection (ATCC) was added to each test tube. The tubes were incubated aerobically at 37° C. for 1 to 2 days. […] FIC values were determined by equation 1.

[2] = system: S. sobrinus; assay: MIC and FIC of MBE and common antioxidants against S. sobrinus (broth two-fold dilution); assay type: cell-based, Streptococcus sobrinus; conditions: sample alone, lowest concentration with no visible growth, aerobic 37° C., 1-2 days; for MIC: Streptococcus sobrinus
Protocol: as §1
S. Sobrinus, another common pathogen associated with dental plaque is also associated with dental caries.
BHA, BHT, gallic acid, octyl gallate and magnolia bark extract (MBE) samples were dissolved in ethanol to produce 1-10% working solution and was added to a nutrient broth and shaken well and was diluted two-fold in individual test tubes A total of 0.2 mL of inoculated bacteria culture purchased from ATCC was added to each test tube. The tubes were incubated aerobically at 37° C. for 1-2 days.

[3] = system: S. mutans; conditions: active principles of Magnolia Cortex extracts; cited from earlier work

SMILES | MIC [2] [µg/mL] | bactericidal against S. mutans in in vitro MIC test [3] | further results
COc1ccc(O)c(C(C)(C)C)c1 [BHA, butylated hydroxyanisole] | – | – | MIC (ppm) [1]: 250 ppm; MIC (ppm) [2]: 500 ppm
Cc1cc(C(C)(C)C)c(O)c(C(C)(C)C)c1 [BHT, butylated hydroxytoluene] | > 2000 | – | –
O=C(O)c1cc(O)c(O)c(O)c1 [Gallic acid] | > 2000 | – | MIC [1]: > 2000 µg/mL
CCCCCCCCOC(=O)c1cc(O)c(O)c(O)c1 [Octyl gallate] | 250 | – | MIC [1]: 250 µg/mL
C=CCc1ccc(O)c(-c2ccc(O)c(CC=C)c2)c1 [honokiol] | – | bactericidal | –
C=CCc1ccc(O)c(-c2cc(CC=C)ccc2O)c1 [magnolol] | – | bactericidal | –
CCCc1ccc(O)c(-c2ccc(O)c(CCC)c2)c1 [tetrahydrohonokiol] | – | bactericidal | –
CCCc1ccc(O)c(-c2cc(CCC)ccc2O)c1 [tetrahydromagnolol] | – | bactericidal | –
